Laboratory results taken from patent US9718828B2 (MERCK SHARP & DOHME CORP., priority 2011, dated 2017).
Where a name gives a salt, the structure may show the parent alone.

Biological target: Btk enzyme (His-Btk) (Homo sapiens (Human), UniProt Q06187)
Test: Btk enzyme activity, IMAP fluorescence polarization assay (Assay Method A)
Settings: not given

Sequence of Btk enzyme (His-Btk) (Q06187 whole entry): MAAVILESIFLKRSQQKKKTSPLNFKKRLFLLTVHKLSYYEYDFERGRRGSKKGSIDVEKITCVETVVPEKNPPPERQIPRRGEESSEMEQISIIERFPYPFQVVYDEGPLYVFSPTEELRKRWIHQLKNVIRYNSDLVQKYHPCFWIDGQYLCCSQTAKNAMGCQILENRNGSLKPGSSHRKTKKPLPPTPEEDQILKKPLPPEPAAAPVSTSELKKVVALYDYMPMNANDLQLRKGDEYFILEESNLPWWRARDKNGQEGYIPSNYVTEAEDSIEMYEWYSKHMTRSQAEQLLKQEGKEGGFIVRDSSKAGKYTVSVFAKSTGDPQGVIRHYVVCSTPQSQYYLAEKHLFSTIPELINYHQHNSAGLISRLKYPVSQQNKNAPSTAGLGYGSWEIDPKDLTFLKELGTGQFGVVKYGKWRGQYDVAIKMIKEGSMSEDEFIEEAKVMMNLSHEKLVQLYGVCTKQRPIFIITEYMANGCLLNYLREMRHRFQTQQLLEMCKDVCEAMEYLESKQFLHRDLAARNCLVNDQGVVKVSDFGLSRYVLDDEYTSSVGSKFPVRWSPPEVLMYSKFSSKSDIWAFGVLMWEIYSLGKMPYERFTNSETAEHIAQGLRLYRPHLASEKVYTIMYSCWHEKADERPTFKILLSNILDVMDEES

Q: How did the EC50 turn out when `COCCC(=O)N1CCC[C@@H](c2nc(-c3ccc(C(=O)Nc4ccccn4)c(F)c3)c3c(N)nccn23)C1` [Example 282, (R)-4-(8-amino-3-(1-(3-methoxypropanoyl)piperidin-3-yl)imidazo[1,5-a]pyrazin-1-yl)-2-fluoro-N-(pyridin-2-yl)benzamide, TFA salt] was run?
A: < 10 nM

Q: `CCC(=O)N1CCC[C@@H](c2nc(-c3ccc(C(=O)Nc4nc5c(s4)CC(C)CC5)cc3)c3c(N)nccn23)C1` (stereo in doubt) [Example 65, (R)-4-(8-amino-3-(1-propionylpiperidin-3-yl)imidazo[1,5-a]pyrazin-1-yl)-N-(6-methyl-4,5,6,7-tetrahydrobenzo[d]thiazol-2-yl)benzamide] was tested. Which EC50 did it give?
A: < 10 nM

Q: `[2H]C([2H])([2H])c1cnc(N)c2c(-c3ccc(C(=O)Nc4cc(C(F)(F)F)ccn4)cc3)nc([C@@H]3CCCN(C(=O)C4(C)COC4)C3)n12` [Example 317, (R)-4-(8-amino-5-deuteromethyl-3-(1-(3-methyloxetane-3-carbonyl)piperidin-3-yl)imidazo[1,5-a]pyrazin-1-yl)-N-(4-(trifluoromethyl)pyridin-2-yl)benzamide] was tested. Which EC50 did it give?
A: < 10 nM

Q: For `Nc1ncnc2c1c(-c1ccc(C(=O)Nc3cc(C(F)(F)F)ccn3)cc1)nn2[C@@H]1CCCN(C(=O)C(Cl)(Cl)Cl)C1` [Example 265, (R)-4-(4-amino-1-(1-(2,2,2-trichloroacetyl)piperidin-3-yl)-1H-pyrazolo[3,4-d]pyrimidin-3-yl)-N-(4-(trifluoromethyl)pyridin-2-yl)benzamide], which EC50 is on record?
A: 10 to 100 nM

Q: For `CN(C)C1(C(=O)N2CCC[C@@H](c3nc(-c4ccc(C(=O)Nc5cc(C(F)(F)F)ccn5)cc4)c4c(N)nccn34)C2)CC1` [Example 88, (R)-4-(8-amino-3-(1-(1-(dimethylamino)cyclopropane-carbonyl)piperidin-3 yl)imidazo[1,5-a]pyrazin-1-yl)-N-(4-(trifluoromethyl)pyridin-2-yl)benzamide], which EC50 is on record?
A: 10 to 100 nM

Q: Which EC50 does the source give for `CC(C)(O)CC(=O)N1CCC[C@@H](c2nc(-c3ccc(C(=O)Nc4cc(C(F)(F)F)ccn4)cc3)c3c(N)nccn23)C1` [Example 71, (R)-4-(8-amino-3-(1-(3-hydroxy-3-methylbutanoyl)piperidin-3-yl)imidazo[1,5-a]pyrazin-1-yl)-N-(4-(trifluoromethyl)pyridin-2-yl)benzamide] here?
A: < 10 nM

Q: Which EC50 does the source give for `CC(C)(CO)C(=O)N1CCC[C@@H](c2nc(-c3ccc(C(=O)Nc4cc(C(F)(F)F)ccn4)cc3)c3c(N)nccn23)C1` [Example 78, (R)-4-(8-amino-3-(1-(3-hydroxy-2,2-dimethylpropanoyl)piperidin-3-yl)imidazo[1,5-a]pyrazin-1-yl)-N-(4-(trifluoromethyl)pyridin-2-yl)benzamide] here?
A: < 10 nM

Q: With `Nc1ncnc2c1c(-c1ccc(C(=O)Nc3cc(C(F)(F)F)ccn3)cc1)nn2[C@@H]1CCCN(C(=O)C(F)(F)F)C1` [Example 274, (R)-4-(4-amino-1-(1-(2,2,2-trifluoroacetyl)piperidin-3-yl)-1H-pyrazolo[3,4-d]pyrimidin-3-yl)-N-(4-(trifluoromethyl)pyridin-2-yl)benzamide] as the molecule, how does the EC50 read?
A: 10 to 100 nM

Q: Which EC50 does the source give for `Nc1ncnn2c([C@@H]3CCCNC3)nc(-c3ccc(C(=O)Nc4cc(C(F)(F)F)ccn4)cc3)c12` [Example 258, (R)-4-(4-amino-7-(piperidin-3-yl)imidazo[1,5-f][1,2,4]triazin-5-yl)-N-(4-(trifluoromethyl)pyridin-2-yl)benzamide] here?
A: 10 to 100 nM

Q: `COCCC(=O)N1CC[C@@H](c2nc(-c3ccc(C(=O)Nc4ccccn4)cc3)c3c(N)nccn23)C1` [Example 125, (R)-4-(8-amino-3-(1-(3-methoxypropanoyl)pyrrolidin-3-yl)imidazo[1,5-a]pyrazin-1-yl)-N-(pyridin-2-yl)benzamide, TFA salt] was tested. Which EC50 did it give?
A: 100 to 1000 nM

Q: For `CC(C)C(=O)N1CCC2(CC1)CC2c1nc(-c2ccc(C(=O)Nc3ccccn3)cc2)c2c(N)nccn12` (stereo not shown) [Example 150, 4-(8-amino-3-(6-isobutyryl-6-azaspiro[2.5]octan-1-yl)imidazo[1,5-a]pyrazin-1-yl)-N-(pyridin-2-yl) benzamidee], which EC50 is on record?
A: 100 to 1000 nM

Q: How did the EC50 turn out when `CCCc1ccnc(NC(=O)c2ccc(-c3nc(C4CCOCC4)n4ccnc(N)c34)cc2)c1` [Example 24, 4-(8-amino-3-(tetrahydro-2H-pyran-4-yl)imidazo [1,5-a]pyrazin-1-yl)-N-(4-propylpyridin-2-yl)benzamide] was run?
A: < 10 nM

Same assay, conditions: read-out: EC50 Btk activity values - Assay Method A; IMAP-FP, 60 min pre-incubation, 5 μM ATP; class 100-1000 is given as ≧100 nM-<1 μM

Q: `Nc1ncc(/C=C/c2ccccc2)n2c(C3CCOCC3)nc(-c3ccc(C(=O)Nc4ccccn4)cc3)c12` [Example 313, (E)-4-(8-amino-5-styryl-3-(tetrahydro-2H-pyran-4-yl)imidazo[1,5-a]pyrazin-1-yl)-N-(pyridin-2-yl)benzamide] was tested. Which EC50 did it give?
A: < 10 nM

Q: Which EC50 does the source give for `COCCC(=O)N1CCOC(c2nc(-c3ccc(C(=O)Nc4cc(C(F)(F)F)ccn4)cc3)c3c(N)ncc(Cl)n23)C1` (stereo not shown) [Example 314, 4-(8-amino-5-chloro-3-(4-(3-methoxypropanoyl)morpholin-2-yl)imidazo[1,5-a]pyrazin-1-yl)-N-(4-(trifluoromethyl)pyridin-2-yl)benzamide] here?
A: < 10 nM

Q: Which EC50 does the source give for `Nc1nccn2c([C@@H]3CCCN(C(=O)[C@H](O)CO)C3)nc(-c3ccc(C(=O)Nc4cc(C5CC5)ccn4)cc3)c12` [Example 289, 4-(8-amino-3-((R)-1-((R)-2,3-dihydroxypropanoyl)piperidin-3-yl)imidazo[1,5-a]pyrazin-1-yl)-N-(4-cyclopropylpyridin-2-yl)benzamide] here?
A: < 10 nM

Q: `Cc1ccnc(NC(=O)c2ccc(-c3nc([C@H]4CC[C@H](O)CC4)n4ccnc(N)c34)cc2)c1` [Example 5, 4-(8-amino-3-((trans)-4-hydroxycyclohexyl)imidazo[1,5-a]pyrazin-1-yl)-N-(4-methylpyridin-2-yl)benzamide] was tested. Which EC50 did it give?
A: < 10 nM

Q: `CCC(=O)C(=O)N1C[C@H](c2nc(-c3ccc(C(=O)Nc4cc(C(F)(F)F)ccn4)cc3)c3c(N)nccn23)CC[C@@H]1C` (relative stereo) [Example 200, 4-(8-amino-3-((cis)-6-methyl-1-(2-oxobutanoyl)piperidin-3-yl)imidazo[1,5-a]pyrazin-1-yl)-N-(4-(trifluoromethyl)-pyridin-2-yl)benzamide, TFA salt] was tested. Which EC50 did it give?
A: < 10 nM

Q: With `CCCc1ccnc(NC(=O)c2ccc(-c3nc(N4CCC4)n4ccnc(N)c34)cc2)c1` [Example 208, 4-(8-amino-3-(azetidin-1-yl)imidazo[1,5-a]pyrazin-1-yl)-N-(4-propylpyridin-2-yl)benzamide] as the molecule, how does the EC50 read?
A: < 10 nM

Q: How did the EC50 turn out when `Nc1nccn2c(C3CCCC3)nc(-c3ccc(C(=O)Nc4cc(C(F)(F)F)ccn4)cc3)c12` [Example 43, 4-(8-amino-3-cyclopentylimidazo[1,5-a]pyrazin-1-yl)-N-(4-(trifluoromethyl)pyridin-2-yl)benzamide, TFA salt] was run?
A: < 10 nM

Q: Which EC50 does the source give for `Nc1nccn2c([C@@H]3CCC[C@@H](NC(=O)C4CCC4)C3)nc(-c3ccc(C(=O)Nc4cc(C(F)(F)F)ccn4)cc3)c12` (relative stereo) [Example 171, 4-(8-amino-3-((trans)-3-(cyclobutanecarboxamido)cyclohexyl)imidazo[1,5-a]pyrazin-1-yl)-N-(4-(trifluoromethyl)pyridin-2-yl)benzamide] here?
A: < 10 nM

Q: With `CCNC(=O)N1CCOC(c2nc(-c3ccc(C(=O)Nc4cc(C(F)(F)F)ccn4)cc3)c3c(N)nccn23)C1` (stereo not shown) [Example 178, 2-(8-amino-1-(4-(4-(trifluoromethyl)pyridin-2-ylcarbamoyl)phenyl)imidazo [1,5-a]pyrazin-3-yl)-N-ethylmorpholine-4-carboxamide] as the molecule, how does the EC50 read?
A: < 10 nM

Q: With `Nc1nccn2c(N3CCOCC3)nc(-c3ccc(C(=O)Nc4cc(C(F)(F)F)ccn4)cc3)c12` [Example 211, 4-(8-amino-3-morpholinoimidazo[1,5-a]pyrazin-1-yl)-N-(4-(trifluoromethyl)pyridin-2-yl)benzamide] as the molecule, how does the EC50 read?
A: < 10 nM

Q: `CC1(C(=O)N2CCOC(c3nc(-c4ccc(C(=O)Nc5cc(C(F)(F)F)ccn5)cc4)c4c(N)ncc(Cl)n34)C2)COC1` (stereo not shown) [Example 315, 4-(8-amino-5-chloro-3-(4-(3-methyloxetane-3-carbonyl)morpholin-2-yl)imidazo[1,5-a]pyrazin-1-yl)-N-(4-(trifluoromethyl)pyridin-2-yl)benzamide] was tested. Which EC50 did it give?
A: < 10 nM

Q: `Nc1nccn2c([C@@H]3C[C@H](O)CN(C(=O)C4CC4)C3)nc(-c3ccc(C(=O)Nc4cc(C(F)(F)F)ccn4)cc3)c12` (relative stereo) [Example 180, 4-(8-amino-3-((cis)-1-(cyclopropanecarbonyl)-5-hydroxypiperidin-3-yl)imidazo[1,5-a]pyrazin-1-yl)-N-(4-(trifluoromethyl)pyridin-2-yl)benzamide] was tested. Which EC50 did it give?
A: < 10 nM

Q: With `Nc1nccn2c(N3CCCC(C(=O)NC[C@@H]4CCCO4)C3)nc(-c3ccc(C(=O)Nc4cc(C(F)(F)F)ccn4)cc3)c12` (stereo partly drawn) [Example 231, 1-(8-amino-1-(4-(4-(trifluoromethyl)pyridin-2-ylcarbamoyl)phenyl)imidazo[1,5-a]pyrazin-3-yl)-N-(((S)-tetrahydrofuran-2-yl)methyl)piperidine-3-carboxamide, TFA salt] as the molecule, how does the EC50 read?
A: < 10 nM

Q: With `CSCCNC(=O)C1CCCN(c2nc(-c3ccc(C(=O)Nc4cc(C(F)(F)F)ccn4)cc3)c3c(N)nccn23)C1` (stereo not shown) [Example 239, 1-(8-amino-1-(4-(4-(trifluoromethyl)pyridin-2-ylcarbamoyl)phenyl)imidazo[1,5-a]pyrazin-3-yl)-N-(2-(methylthio)ethyl)piperidine-3-carboxamide, TFA salt] as the molecule, how does the EC50 read?
A: < 10 nM

Q: With `C[C@H]1CC[C@@H](c2nc(-c3ccc(C(=O)Nc4cc(C(F)(F)F)ccn4)cc3)c3c(N)nccn23)CN1C(=O)C1CCCO1` (relative stereo) [Example 194, 4-(8-amino-3-((cis)-6-methyl-1-(tetrahydrofuran-2-carbonyl)piperidin-3-yl)imidazo[1,5-a]pyrazin-1-yl)-N-(4-(trifluoromethyl)pyridin-2-yl)benzamide, TFA salt] as the molecule, how does the EC50 read?
A: < 10 nM

Q: With `CCCc1ccnc(NC(=O)c2ccc(-c3nc([C@H]4CC[C@H](O)CC4)n4ccnc(N)c34)cc2F)c1` [Example 13, 4-(8-amino-3-((trans)-4-hydroxycyclohexyl)imidazo[1,5-a]pyrazin-1-yl)-2-fluoro-N-(4-propylpyridin-2-yl)benzamide] as the molecule, how does the EC50 read?
A: < 10 nM
